# Test results taken from patent US11091429B2, “Organic compounds” (Givaudan SA, priority 2012, dated 2021).
# “Also recorded” adds a separate entry of the source.
# How the values were obtained:
# Tasting in butter = settings: 1 ppm in Blueband butter 82% fat 1.5% salt
# Procedure: (§1) The following formulations were prepared and tasted by trained panelists.
# Blueband 82% fat 1.5% salt
# [1] = Tasting in low fat mayonnaise
# Procedure: as §1
# Low fat Mayonnaise (27% Fat, 9% carbohydrates (of which 5% sugar), 1.4% salt)
# (§2) Samples were prepared and evaluated by expert tasters. Tasters were asked to describe the samples focusing on authentic taste, mouthfeel, fullness, salty-ness, salivation, umami, sweetness, juiciness, richness, long lastingness and fattiness.
# Calve 60% Reduced Fat Mayonnaise
# Base is Calve Mayonnaise 60% reduced fat (market Product)
# (§3) Samples were prepared and evaluated by expert tasters. Tasters were asked to describe the samples focusing on authentic taste, mouthfeel, fullness, salivation, salty-ness, umami, sweetness, juiciness, richness, long lastingness and fattiness.
# Low fat Mayonnaise (27% Fat)
# [2] = Tasting in spreadable cheese; settings: 0.5 PPM in spreadable cheese (Eru)
# Procedure: as §1, §2
# Test on “Eru Prestige” Spreadable Cheese
# Base is Eru prestige (market product)
# as §3
# [3] = Tasting of chicken filet fried in oil
# Procedure: as §1
# Differentiator high temperature 100-250 degrees Celsius in a frying in oil process
# C18:2 gaba @ 2.0 PPM in 135 gram frying oil (blue band 82% Fat) 450 gram chicken filet 2 minutes high fire and 5 minutes medium fire.
# Tasting of baked pizza = settings: 0.5 PPM in the crust and 0.5 PPM in the tomato sauce, baked at 200 degrees Celsius
# Procedure: as §1
# Differentiator high temperature 100-250 degrees Celsius in hot air baking process
# C18:2 gaba @ 0.5 PPM in the crust and @ 0.5 PPM in the tomato sauce
# The pizza was topped off with cheese and baked in a hot air oven @ 200 degrees Celsius
# [4] = Tasting on air expanded base; settings: 3% fat, cheese seasoning
# Procedure: as §1
# An air expanded base (Rice, wheat, Tapioca, potato, salt, sugar, modified starch), containing 3% fat and flavored with cheese seasoning containing salt, MSG, dairy, organic acids, sugars and flavor. The following compounds were added to the base at the indicated levels and the tasting results are reported: […]
# [5] = Tasting in UHT milk, cream flavoured; settings: 2 ppm, cream flavour 0.03%
# Procedure: The following tests were carried out on dairy products processed by fermentation, pasteurization or UHT. The products contain fat, protein and calcium.
# UHT Milk Cream Flavoured, Non Sweetened and Different Fat Levels
# In a UHT milk containing 0%, 1.5% and 3% fat, flavoured with a proprietary cream flavour closed at 0.03% C18:2 gaba was added at 2 ppm.
# Samples were evaluated by expert tasters.
# Tasters were asked to describe the samples focusing on authentic taste, mouthfeel, fullness, salivation, sweetness, juiciness, richness, long lastingness and fattiness. The results are presented below:—
# [6] = Tasting in UHT sweetened banana flavoured milk; settings: banana flavour 0.04%
# Procedure: UHT Sweetened Banana Flavoured Milk, With Different Fat Levels
# In a UHT milk with 0% and 3% fat sweetened with 4% sucrose by weight, flavoured with proprietary banana flavour dosed at 0.04%. C18:2 gaba was added at 0.25 ppm, 0.5 ppm and 1 ppm.
# (§4) Samples were evaluated by expert tasters. Tasters were asked to describe the samples focusing on authentic taste, mouthfeel, fullness, salivation, sweetness, juiciness, richness, long lastingness and fattiness.
# [7] = Tasting in yoghurt, cream flavoured; settings: 2 ppm, cream flavour 0.03%
# Procedure: Yoghurt Cream Flavoured, Non-Sweetened and Different Fat Levels
# In a Yoghurt containing 0% 1.5% and 3% fat, flavoured with proprietary cream flavour dosed at 0.03%, C18:2-gaba was added at 2 ppm. Samples were evaluated by expert tasters. Tasters were asked to describe the samples focusing on authentic taste, acidity, mouthfeel, fullness, salivation, sweetness, juiciness, richness, long lastingness and fattiness.
# [8] = Tasting in strawberry flavoured sugar sweetened yoghurt; settings: 2 ppm, 1.5% fat yoghurt, 8% sucrose, strawberry flavour 0.015%
# Test in 3 in 1 coffee = settings: 1 ppm, 3-in-1 coffee beverage, sucrose 13.2%, creamer (2.1% fat)
# Procedure: In a 3 in 1 Coffee beverage from Nestle (market product) sweetened with sucrose 13.2% and containing creamer (2.1% fat) C18:2-gaba was added.
# as §4
# Base is 3-in-1 Coffee beverage (market product) sweetened with sucrose and containing creamer with fat
# Test on Heineken beer = settings: 0.5 ppm, 4% alcohol
# Procedure: In Heineken beer (Market Product) containing 4% alcohol C18:2-gaba was added at 0.5 ppm
# Samples were evaluated by expert tasters. Tasters were asked to describe the samples focusing on authentic taste, alcohol impact, malt taste, hop taste, mouthfeel, fullness, salivation, sweetness, bitterness, richness, long lastingness and fattiness.
# (§5) Samples were evaluated by expert tasters. Tasters were asked to describe the samples focusing on authentic taste, mouthfeel, fullness, salty-ness, salivation, umami, sweetness, juiciness, richness, long lastingness and fattiness.
# Base: Heineken beer (containing 4% alcohol)
# [9] = Test in chocolate flavoured drink; settings: 2 ppm; water, 4% sucrose, chocolate flavour 0.03%
# Procedure: as §2
# Test in Chocolate Flavoured Drink:
# Base: Water, 4% sucrose, proprietary chocolate flavor at 0.03%
# as §5
# Test in Chocolate Flavoured Drink Flavoured
# Base: Water, 4% sucrose, proprietary chocolate flavour @ 0.03%
# [10] = Test in pineapple flavoured drink; settings: 1 ppm; water, 8% sugar, 0.1% citric acid, pineapple flavour 0.03%
# Procedure: as §2
# Test in Pineapple Flavoured Drink:
# Base is water, 8% sugar, 0.1% citric acid and proprietary pineapple flavour at 0.03%
# as §5
compound,measurement,setting,value
CCCCC/C=C\C/C=C\CCCCCCCC(=O)NCCCC(=O)O [C18:2-gaba],tasting result,Tasting in butter,"more authentic butter taste, with more mouthfeel"
same,tasting result,[1]; 0.5 ppm in Calve Mayonnaise 60% reduced fat,"full, rich, creamy, more egg yolk taste"
same,tasting result,[1]; 0.5 ppm in low fat mayonnaise (27% fat),"creamy, thick mouthfeel with a full fat impression"
same,tasting result,[2],"full salty, much more cheese bite, umami, lingering, long lasting"
same,tasting result,[2]; listed as C18:2 gaba,"Full, Salty, cheese bite, more mature"
same,taste of the frying oil,[3]; 2.0 PPM in 135 gram frying oil (blue band 82% Fat),more savoury golden brown notes
same,taste of the chicken,"[3]; 2.0 PPM in 135 gram frying oil, 450 gram chicken filet, 2 minutes high fire and 5 minutes medium fire","more juicy, succulent, lingering more white meat"
same,tasting result,Tasting of baked pizza,"The crust was less dry, more succulent and the tomato was richer, sweeter and the total lingering aftertaste was very rich and pleasant"
same,tasting result,[4]; 0.5 ppm on air expanded base,"Increased dairy, cheese"
same,tasting result,[4]; 1 ppm on air expanded base,"Fatty full, cheesy, cheese crust, long lasting, cover base"
same,tasting result,[5]; UHT milk 0% fat,"Very creamy, milky, long lasting"
same,tasting result,[5]; UHT milk 1.5% fat,"very creamy, milky, long lasting, salivating"
same,tasting result,[5]; UHT milk 3.0% fat,"very creamy, milky, long lasting, taste like whipped cream"
same,tasting result,"[6]; 0.25 ppm, UHT milk 0% fat","fuller banana, more authentic, more sweet"
same,tasting result,"[6]; 0.25 ppm, UHT milk 3% fat","more authentic, less estery and more round"
same,tasting result,"[6]; 0.5 ppm, UHT milk 0% fat","fuller banana, authentic, creamy and sweet, more mouthfeel"
same,tasting result,"[6]; 0.5 ppm, UHT milk 3% fat",creamy banana
same,tasting result,"[6]; 1 ppm, UHT milk 0% fat","creamy, creamy banana, sweet aftertaste, more mouthfeel and very longlasting"
same,tasting result,"[6]; 1 ppm, UHT milk 3% fat",creamy long lasting and more authentic and more impact
same,tasting result,[7]; yoghurt 0% fat,"less acidic, slight creamy aftertaste"
same,tasting result,[7]; yoghurt 1.5% fat,"very creamy, thick, nice long lasting, whipped cream note"
same,tasting result,[7]; yoghurt 3% fat,"less acidic, much more creamy, very long lasting creamy aftertaste"
same,tasting result,[8],"very creamy and fresh strawberry; also recorded: creamy, fruity authentic strawberry, stronger strawberry, ripe, long lasting, juicy"
same,tasting result,Test in 3 in 1 coffee,"very nice mouthfeel effect, creamy as if coffee creamer is added, more sweet"
same,tasting result,Test on Heineken beer,"more hoppy, more bitter, more malt and stronger alcohol impact"
same,tasting result,Test on Heineken beer; listed as C18:2 gaba,"more happy, more bitter, more malt and stronger alcohol impact"
same,tasting result,[9],"full, sweeter, more vanillic, milk chocolate is enhanced, very long lasting"
same,tasting result,[10],"very ripe, jammy, long lasting and sweet"
